Measured values as given in patent US7288558B2, “Pharmaceutical composition for treatment for urinary diseases comprising LPA receptor regulator” (Ono Pharmaceuticals Co., Ltd., priority 2001, dated 2007).

What was measured:
urethra [1] = assay: Measurement of urethral pressure by drugs in pithed male rats, i.v.; assay type: in vivo, rat; set-up: key to urethral pressure: ↑: increase; (—): no effect; settings: for urethral pressure / urethral pressure (increase): male pithed rats; for urethral pressure: class symbol; for intraurethral pressure: 1 mg/kg i.v.
Method: Male CD(SD)IGS rats (Charles River Japan Inc., 8-9 week-old in use) were anesthetized by intraperitoneal administration of sodium pentbarbital (50 mg/kg). After incision of cervical median, broncho cannula and arterial catheter were inserted. The measurement of blood pressure was started via arterial catheter and subsequently a stainless-steel rod was inserted into the spinal column through the orbit and foramen magnum for the destruction of the spinal cord. The broncho cannula was connected to the artificial breathing device for small animals (SN-480-7, Shinano, Tokyo, Japan) immediately and the animals were ventilated artificially with room air in a tidal volume of 6 mL/kg body weight at a rate of 70 breaths/min. After confirming the gentle decrease of blood pressure and stabilization of the blood pressure at the low level indicating a success of destruction of the spinal cord, intravenous catheter was inserted into femoral vein for drug administration. Urinary bladder was exposed by incision of hypogastrium median and urethra was tied off in the vicinity of pubic bone. Urethra catheter was inserted into urethra through dome of urinary bladder and fixed by ligation at the bladder neck. Urethra catheter was connected to the pressure transducer and urethral pressure was measured. Subsequently, urethral pressure was adjusted about 20 mmHg and left for about 1 hour. After it was confirmed stability of urethral pressure, and subsequently 10 μg/kg/0.5 ml phenylephrine was administrated and it was confirmed that urethral pressure increased. Various drugs included 18:3-LPA were estimated 0.5 ml/kg in the same way.

[2] = tested on: isolated urethral preparations; assay: Measurement of urethra contraction, isolated female rat urethral preparations (Magnus tube); assay type: cell-based
Description: After sacrificing female CD(SD)IGS rats (Charles River Japan Inc., 8-9 week-old in use) by blowing heads and exsanguinating from jugular vein, urethra under pubis was isolated carefully and soaked in Krebs-Henseleit solution (112 mmol/L NaCl, 5.9 mmol/L KCl, 2.0 mmol/L CaCl2, 1.2 mmol/L MgCl2, 1.2 mmol/L NaH2PO4, 25.0 mmol/L NaHCO3, 11.5 mmol/L glucose) immediately. Urethra part was cut from isolated sample, and was dissected in flat and subsequently was cut parallel to circular muscle. Thus, 2-3 strips of sample that are 3-4 mm long by 2-3 mm wide were made.
(§1) The made samples were suspended in the Magnus tube (volume: 10 mL) filled by Krebs-Henseleit solution (vented by 37±1° C., mixed gas [95% O2+5% CO2]). The samples were added about 0.5 g tension and stabilized for 60 min, and subsequently the contractile activity was recorded on recorder (linearcoder WR3320: GRAPHTEC CORP., thermal pen-writing recorder RJG-4128: Nihon Kohden Ltd) via a pressure amplifier (AP-641G, AP-601G, Nihon Kohden Ltd) from isometric transducer (Force displacement transducer) (FD pick-up TB-611T: Nihon Kohden Ltd).
The contractile reaction of control was given by stimulation of high concentration KCl solution (solution replaced all NaCl with KCl). By the addition of LPA and phenylephrine (comparison compound: α agonist) cumulatively, dose-dependency of urethra contraction was measured. […]

[3] = tested on: isolated prostatic preparations; assay: Contractile test of isolated prostate, male rats (Magnus tube); assay type: cell-based; settings: isolated male rat prostate
Description: After sacrificing male CD(SD)IGS rats (Charles River Japan Inc., 8-9 week-old in use) by blowing heads and exsanguinating from jugular vein, prostate was isolated and soaked in iced Krebs-Henseleit solution (112 mmol/L NaCl, 5.9 mmol/L KCl, 2.0 mmol/L CaCl2, 1.2 mmol/L MgCl2, 1.2 mmol/L NaH2PO4, 25.0 mmol/L NaHCO3, 11.5 mmol/L glucose) immediately. Prostate was separated right-and-left part from isolated sample, fatty tissue was removed and longitudinal strips (2 to 3 strips) were isolated from a prostate lobe.
as §1, with “were” for “were added about 0.5 g tension and”, “min and added about 0.5-1 g tension,” for “min,”, “AP-601G:” for “AP-601G,”, “Ltd). 0.01-10 μM phenylephrine was added in Magnus tube. The contraction by 10 μM phenylephrine is the contractile reaction of control. […] After the samples were suspended, it was washed over and over, opportunity. […]” for “Ltd).”

micturition = assay: Cystometry in anesthetized female rats with intravenous infusion of LPA; assay type: in vivo, rat; settings: infusion rate 15 mg/kg/hr/3 mL i.v.
Description: Female CD(Sprague-Dawley)IGS rats (Charles River Japan Inc., 12 to 13 weeks old in use) were anesthetized with an s.c. administration of urethane (1.2 g/kg) and placed in a supine position and the bladder and proximal urethra were exposed through a midline abdominal incision. The ureters were tied with silk suture distally and cut. Bladder was exposed and a polyethylene catheter (JMS cutdown tube, C3) was inserted through the bladder dome and secured with a ligature. The other side of the catheter was connected to a pressure transducer through two T tubes to measure intravesical pressure. Another side of T tubes was connected to an infusion pump for performing cystometrograms (the other side of T tube was connected to a syringe). The carotid artery was cannulated to measure blood pressure and the jugular vein was cannulated to administration of the test compounds. Rats in which the above mentioned operation was performed were placed to 37° C. thermostat plate and citric acid solution (pH4.0) or saline were infused into bladder at the rate of 2.85 mL/hr. After cystometrograms show rhythmic reflex saline was infused via jugular vein at the infusion rate of 3 mL/kg/hr. After an appropriate time 18:3-LPA prepared with 5 mg/mL was infused at the infusion rate of 3 mL/kg/hr. After the 18:3-LPA infusion was stopped saline was infused again. […]

colon and ileum = settings: rats, literature; cited from earlier work
[4] = tested on: LPA dependent contraction in rat isolated urethra; assay: Inhibitory activity for LPA dependent contraction in rat isolated urethra; assay type: cell-based; settings: isolated male rat urethra, 10 μM LPA
Description: Male CD(SD)IGS rats (Charles River Japan Inc., 8-9 week-old in use) anesthetized by diethyl ether were sacrificed by taking blood from the descending aorta, and subsequently urethra under pubis was isolated with urinary bladder and vesicular gland carefully and soaked in Krebs-Henseleit solution (112 mmol/L NaCl, 5.9 mmol/L KCl, 2.0 mmol/L CaCl2, 1.2 mmol/L MgCl2, 1.2 mmol/L NaH2PO4, 25.0 mmol/L NaHCO3, 11.5 mmol/L glucose) immediately. Urethra was cut from extracted sample and was dissected on the side of abdominal in flat with scissors for ophthalmic surgery. Thus, the strip of sample that are 3-4 mm long by 2-3 mm wide was made. […] The samples were added about 0.5 g tension and stabilized for 60 min, and subsequently the contractile activity was recorded on recorder (linearcoder WR3320: GRAPHTEC CORP., thermal pen-writing recorder RJG-4128: Nihon Kohden Ltd) via a pressure amplifier (AP-641G, AP-601G, Nihon Kohden Ltd) from Force displacement transducer (FD pick-up TB-611T: Nihon Kohden Ltd). […]
In other words, the isolated urethra was stimulated repeatedly by 10 μM LPA until a constant response was attained. […] Then the urethral contraction was monitored (post value). The inhibitory activity of compound A was calculated as the inhibition (%)={1-(post value)/(pre value)}×100. […]

urethra [5] = assay: Rat urethral pressure in vivo after intravenous compound A; settings: male rats, 3 mg/kg i.v.
Description: Male CD(SD)IGS rats (Charles River Japan Inc., 8-9 week-old in use) were anesthetized by subcutaneous administration of 1.2 g/kg urethane. After incision of cervical median, jugular vein catheter for administration of compound and arterial catheter for measurement of blood pressure were inserted. Subsequently, an incision in the hypogastrium median was made and urethra was tied off in the vicinity of pubic bone. Urethral catheter was inserted into urethra by cutting open dome of urinary bladder and fixed by ligation in of the bladder neck. Another end of urethral catheter was connected to the pressure transducer and urethral pressure was measured. Urethral pressure was adjusted about 20 mmHg and left at rest until it was stabilized (for about 20 minutes). Subsequently, compound A was administrated intravenously and blood pressure and urethral pressure were measured for 20 minutes, and then in order to monitor the base-line value of the intraurethral pressure 1 mL of pentobarbital was intraveniously injected. After the intraurethral pressure was decreased to the prolonged plateau, it was estimated as a base-line value. Compound A was administrated intraveniously (3 mg/kg, 1 mL/kg). Vehicle was confirmed as 10% DMSO-90% rat plasma solution. […]

EDG-2 = EDG-2 (Homo sapiens, UniProt Q92633); settings: EDG-2 over-expressed cell, specification of WO01/60819; cited from earlier work
Chain of EDG-2 (Q92633 whole entry): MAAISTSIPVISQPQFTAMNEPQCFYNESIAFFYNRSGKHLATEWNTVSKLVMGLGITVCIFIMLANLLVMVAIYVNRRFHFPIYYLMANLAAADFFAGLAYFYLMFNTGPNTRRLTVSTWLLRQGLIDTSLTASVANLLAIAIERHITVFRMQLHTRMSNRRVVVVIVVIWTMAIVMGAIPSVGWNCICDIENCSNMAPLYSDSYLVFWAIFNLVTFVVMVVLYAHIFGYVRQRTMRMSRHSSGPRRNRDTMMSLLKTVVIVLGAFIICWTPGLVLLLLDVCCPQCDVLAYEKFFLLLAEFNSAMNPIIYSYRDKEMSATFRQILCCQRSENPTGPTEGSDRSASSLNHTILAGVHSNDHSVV

CC/C=C\C/C=C\C/C=C\CCCCCCCC(=O)OCC(O)CO (centres unmarked) [1-monolinolenoyl (18:3)-glycerol]
urethral pressure (urethra [1]; dose 1 mg/kg i.v.): —
intraurethral pressure (urethra [1]; pithed rat, in words): hardly increase

CC/C=C\C/C=C\C/C=C\CCCCCCCC(=O)OC[C@@H](O)COP(=O)(O)O [18:3-LPA, 1-Linolenoyl lysophosphatidic acid]
desensitization of urethral contraction [2]: desensitization was not caused
intensity of contraction of urethra compared with phenylephrine ([2]; cumulative addition, FIG. 1): more potent
desensitization of prostate contraction [3]: desensitization was caused
contraction of isolated prostate ([3]; organ bath in vitro, FIG. 2): contracts isolated urethra and prostate
urethral pressure (increase) (urethra [1]; dose 10 μg/kg i.v.): 3.0 mmHg
urethral pressure (increase) (urethra [1]; dose 100 μg/kg i.v.): 9.0 mmHg
urethral pressure (increase) (urethra [1]; dose 1 mg/kg i.v.): 15.5 mmHg
intraurethral pressure, dose dependency (urethra [1]; pithed rat, intravenous injection, in words): increased the intraurethral pressure in a dose-dependent manner
micturition pressure versus infusion of saline (micturition): increased
intercontraction interval versus saline infusion (micturition; FIG. 6): shorter
activity for the contraction of colon and ileum (colon and ileum): most potent activity

CCCCCCCCCCCCCCCC(=O)OCC(O)COP(=O)(O)O (centres unmarked) [(16:0)-LPA, 1-palmitoyl lysophosphatidic acid]
activity for the contraction of colon and ileum (colon and ileum): also have the activity

CCCCC/C=C\C/C=C\CCCCCCCC(=O)OC[C@@H](O)COP(=O)(O)O [(18:2)-LPA, 1-linoleoyl lysophosphatidic acid]
activity for the contraction of colon and ileum (colon and ileum): also have the activity

CNC[C@H](O)c1cccc(O)c1 [L-phenylephrine]
urethral pressure (increase) (urethra [1]; dose 10 μg/kg i.v.): 7.5 mmHg

CC/C=C\C/C=C\C/C=C\CCCCCCCC(=O)OC[C@@H](O)COP(=O)([O-])OCC[N+](C)(C)C [LPC (18:3), 1-linolenoyl (18:3)-LPC (lysophosphatidyl choline)]
urethral pressure (urethra [1]; dose 1 mg/kg i.v.): —
intraurethral pressure (urethra [1]; pithed rat, in words): hardly increase

COC(=O)CCSCc1ccc(-c2onc(C)c2NC(=O)OC(C)c2ccccc2Cl)cc1 (centres unmarked) [compound A, methyl 3-({4-[4-({[1-(2-chlorophenyl)ethoxy]carbonyl}amino)-3-methyl-5-isoxazolyl]benzyl}sulfanyl)propanoate]
IC50 ([4]; 0.5 h, 30 min incubation at 37° C., read-out: 50% inhibitory concentration (IC50) for urethral contraction by LPA): 70 nM
inhibition of urethral contraction by LPA ([4]; in words): inhibited the urethral contraction by LPA, dose-dependently
maximal amounts of the decreasing intraurethral pressure, of an absolute value (pressure before injection minus base-line value) (urethra [5]): about 50%
intraurethral pressure (urethra [5]; urethane anesthesia, versus vehicle, FIG. 5): greatly decreased
LPA receptor (EDG-2) antagonistic activity (EDG-2): potent EDG-2 antagonistic activity
